Assay results published in PubChem BioAssay AID1963983 (Molecular Pharmacology Branch, DTP, NCI, 2024).

System: 186277-243-T-J2-PDC multi-cell spheroid viability
Assay: Anticancer human tumor 186277-243-T-J2-PDC patient-derived colon adenocarcinoma cell line growth inhibition [PI3K]
Settings: for viability, T/C: stronger effect = lower value
Procedure, shortened: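 High-throughput combination screen: PI3K inhibitors crossed with targeted small molecules on complex spheroids of tumor cells, HUVEC and MSCs at 37 degrees C, 5% CO2. Top concentration was at or near clinical Cmax (otherwise 10 microM), with half-log decrements.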

[1] = curve of first compound, second compound 0.00316 µM
[2] = curve of first compound, second compound 0.01 µM
[3] = curve of first compound, second compound 0.0316 µM
[4] = curve of first compound, second compound 0.1 µM
[5] = curve of first compound, second compound 0.316 µM
[6] = curve of first compound, second compound 1 µM
[7] = second compound 0.00316 µM, first compound 0.0316 µM
[8] = second compound 0.00316 µM, first compound 0.1 µM
[9] = second compound 0.01 µM, first compound 0.0316 µM
[10] = second compound 0.01 µM, first compound 0.1 µM
[11] = second compound 0.0316 µM, first compound 0.0316 µM
[12] = second compound 0.0316 µM, first compound 0.1 µM
[13] = second compound 0.1 µM, first compound 0.0316 µM
[14] = second compound 0.1 µM, first compound 0.1 µM
[15] = second compound 0.316 µM, first compound 0.0316 µM
[16] = second compound 0.316 µM, first compound 0.1 µM
[17] = second compound 1 µM, first compound 0.0316 µM
[18] = second compound 1 µM, first compound 0.1 µM
[19] = second compound 0.00316 µM, first compound 0.000316 µM
[20] = second compound 0.00316 µM, first compound 0.001 µM
[21] = second compound 0.00316 µM, first compound 0.00316 µM
[22] = second compound 0.00316 µM, first compound 0.01 µM
[23] = second compound 0.01 µM, first compound 0.000316 µM
[24] = second compound 0.01 µM, first compound 0.001 µM
[25] = second compound 0.01 µM, first compound 0.00316 µM
[26] = second compound 0.01 µM, first compound 0.01 µM
[27] = second compound 0.0316 µM, first compound 0.000316 µM
[28] = second compound 0.0316 µM, first compound 0.001 µM
[29] = second compound 0.0316 µM, first compound 0.00316 µM
[30] = second compound 0.0316 µM, first compound 0.01 µM
[31] = second compound 0.1 µM, first compound 0.000316 µM
[32] = second compound 0.1 µM, first compound 0.001 µM
[33] = second compound 0.1 µM, first compound 0.00316 µM
[34] = second compound 0.1 µM, first compound 0.01 µM
[35] = second compound 0.316 µM, first compound 0.000316 µM
[36] = second compound 0.316 µM, first compound 0.001 µM
[37] = second compound 0.316 µM, first compound 0.00316 µM
[38] = second compound 0.316 µM, first compound 0.01 µM
[39] = second compound 1 µM, first compound 0.000316 µM
[40] = second compound 1 µM, first compound 0.001 µM
[41] = second compound 1 µM, first compound 0.00316 µM
[42] = second compound 1 µM, first compound 0.01 µM
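Also: spheroids exposed to compounds for seven days before viability reading.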
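For viability, T/C in this document: 100% = DMSO vehicle control viability.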

Compound: Cn1ncc(Cl)c1-c1cc(C(=O)NC(CN)Cc2cccc(F)c2)sc1Cl (configuration not stated) + COc1c(OCCCN2CCOCC2)ccc2c3n(c(=NC(=O)c4cnc(N)nc4)nc12)CCN3
- IC50 [1]: 0.224 µM
- IC50 [2]: 0.225 µM
- IC50 [3]: 0.0468 µM
- IC50 [4]: < 0.0316 µM
- IC50 [5]: < 0.0316 µM
- IC50 [6]: < 0.0316 µM
- viability, T/C [7]: 93%
- viability, T/C [8]: 63.4%
- viability, T/C (second compound 0.00316 µM, first compound 0.316 µM): 42.9%
- viability, T/C (second compound 0.00316 µM, first compound 1 µM): 30.4%
- viability, T/C (second compound 0.00316 µM, first compound 3.16 µM): 20.4%
- viability, T/C (second compound 0.00316 µM, first compound 10 µM): 9.36%
- viability, T/C [9]: 86.4%
- viability, T/C [10]: 71.8%
- viability, T/C (second compound 0.01 µM, first compound 0.316 µM): 38.2%
- viability, T/C (second compound 0.01 µM, first compound 1 µM): 23.1%
- viability, T/C (second compound 0.01 µM, first compound 3.16 µM): 14.4%
- viability, T/C (second compound 0.01 µM, first compound 10 µM): 4.57%
- viability, T/C [11]: 58.3%
- viability, T/C [12]: 33.6%
- viability, T/C (second compound 0.0316 µM, first compound 0.316 µM): 23.5%
- viability, T/C (second compound 0.0316 µM, first compound 1 µM): 13.7%
- viability, T/C (second compound 0.0316 µM, first compound 3.16 µM): 10.4%
- viability, T/C (second compound 0.0316 µM, first compound 10 µM): 2.08%
- viability, T/C [13]: 21.1%
- viability, T/C [14]: 13.3%
- viability, T/C (second compound 0.1 µM, first compound 0.316 µM): 8.18%
- viability, T/C (second compound 0.1 µM, first compound 1 µM): 6.79%
- viability, T/C (second compound 0.1 µM, first compound 3.16 µM): 6.13%
- viability, T/C (second compound 0.1 µM, first compound 10 µM): 1.39%
- viability, T/C [15]: 4.19%
- viability, T/C [16]: 4.53%
- viability, T/C (second compound 0.316 µM, first compound 0.316 µM): 2.93%
- viability, T/C (second compound 0.316 µM, first compound 1 µM): 5.08%
- viability, T/C (second compound 0.316 µM, first compound 3.16 µM): 3.95%
- viability, T/C (second compound 0.316 µM, first compound 10 µM): 0.44%
- viability, T/C [17]: 2.43%
- viability, T/C [18]: 1.6%
- viability, T/C (second compound 1 µM, first compound 0.316 µM): 2.02%
- viability, T/C (second compound 1 µM, first compound 1 µM): 1.95%
- viability, T/C (second compound 1 µM, first compound 3.16 µM): 1.4%
- viability, T/C (second compound 1 µM, first compound 10 µM): 0.21%

Compound: Cn1ncnc1[C@H]1c2n[nH]c(=O)c3cc(F)cc(c23)N[C@@H]1c1ccc(F)cc1 + CC(Nc1ccc2c(c1)OCCn1cc(N3C(=O)OCC3C(F)F)nc1-2)C(N)=O
- IC50 [1]: > 0.1 µM
- IC50 [2]: > 0.1 µM
- IC50 [3]: > 0.1 µM
- IC50 [4]: > 0.1 µM
- IC50 [5]: 0.0468 µM
- IC50 [6]: 0.000592 µM
- viability, T/C [19]: 93.7%
- viability, T/C [20]: 85.8%
- viability, T/C [21]: 105%
- viability, T/C [22]: 91%
- viability, T/C [7]: 101%
- viability, T/C [8]: 94.9%
- viability, T/C [23]: 101%
- viability, T/C [24]: 102%
- viability, T/C [25]: 104%
- viability, T/C [26]: 102%
- viability, T/C [9]: 102%
- viability, T/C [10]: 98.6%
- viability, T/C [27]: 117%
- viability, T/C [28]: 107%
- viability, T/C [29]: 101%
- viability, T/C [30]: 97.9%
- viability, T/C [11]: 101%
- viability, T/C [12]: 89%
- viability, T/C [31]: 102%
- viability, T/C [32]: 105%
- viability, T/C [33]: 112%
- viability, T/C [34]: 99.5%
- viability, T/C [13]: 93.5%
- viability, T/C [14]: 69.4%
- viability, T/C [35]: 80.6%
- viability, T/C [36]: 84.4%
- viability, T/C [37]: 65%
- viability, T/C [38]: 64.8%
- viability, T/C [15]: 53.7%
- viability, T/C [16]: 43.3%
- viability, T/C [39]: 52.2%
- viability, T/C [40]: 46.6%
- viability, T/C [41]: 46.9%
- viability, T/C [42]: 39.4%
- viability, T/C [17]: 31.9%
- viability, T/C [18]: 26.6%

Compound: CC(C)n1nc(-c2ccc3oc(N)nc3c2)c2c(N)ncnc21 + CC(Nc1ccc2c(c1)OCCn1cc(N3C(=O)OCC3C(F)F)nc1-2)C(N)=O
- IC50 [1]: 0.0529 µM
- IC50 [2]: 0.0552 µM
- IC50 [3]: 0.0475 µM
- IC50 [4]: 0.0304 µM
- IC50 [5]: 0.00851 µM
- IC50 [6]: < 0.000316 µM
- viability, T/C [19]: 90%
- viability, T/C [20]: 101%
- viability, T/C [21]: 104%
- viability, T/C [22]: 93.7%
- viability, T/C [7]: 75.1%
- viability, T/C [8]: 19.1%
- viability, T/C [23]: 116%
- viability, T/C [24]: 87.5%
- viability, T/C [25]: 113%
- viability, T/C [26]: 93.1%
- viability, T/C [9]: 73.5%
- viability, T/C [10]: 25.3%
- viability, T/C [27]: 107%
- viability, T/C [28]: 116%
- viability, T/C [29]: 97.9%
- viability, T/C [30]: 89.9%
- viability, T/C [11]: 69.7%
- viability, T/C [12]: 17.5%
- viability, T/C [31]: 95.8%
- viability, T/C [32]: 94.2%
- viability, T/C [33]: 92.5%
- viability, T/C [34]: 82.4%
- viability, T/C [13]: 48.8%
- viability, T/C [14]: 8.12%
- viability, T/C [35]: 81.7%
- viability, T/C [36]: 80.3%
- viability, T/C [37]: 63.5%
- viability, T/C [38]: 49.7%
- viability, T/C [15]: 22.6%
- viability, T/C [16]: 6.29%
- viability, T/C [39]: 46.9%
- viability, T/C [40]: 39.3%
- viability, T/C [41]: 37.6%
- viability, T/C [42]: 24.3%
- viability, T/C [17]: 8.53%
- viability, T/C [18]: 3.88%

Compound: Cn1ncnc1[C@H]1c2n[nH]c(=O)c3cc(F)cc(c23)N[C@@H]1c1ccc(F)cc1
- viability, T/C (compound 0.000316 µM): 97.7% [middle of 4 runs]
- viability, T/C (compound 0.001 µM): 94.7% [middle of 4 runs]
- viability, T/C (compound 0.00316 µM): 97.8% [middle of 4 runs]
- viability, T/C (compound 0.01 µM): 93% [middle of 4 runs]
- viability, T/C (compound 0.1 µM): 93.6% [middle of 4 runs]
- IC50 (curve of compound): > 0.1 µM
